Experimental data reported in patent publication US5541229A, “Benzimidazoles and medicaments containing these compounds” (Dr. Karl Thomae GmbH, priority 1989, dated 1996).
Read-outs that look alike come from different tables or passages of the source.

Columns and labels:
[1] = molecular target: T1, bovine adrenal gland receptor preparations (Bos taurus, UniProt P25104); experiment: inhibition of angiotensin II bonding to bovine adrenal gland receptor preparations; format: binding
T1 construct: aliquots of a membrane preparation of bovine adrenal cortex in tris buffer; from tissue; host or cells: bovine adrenal cortex membranes
T1 sequence (P25104 1-359): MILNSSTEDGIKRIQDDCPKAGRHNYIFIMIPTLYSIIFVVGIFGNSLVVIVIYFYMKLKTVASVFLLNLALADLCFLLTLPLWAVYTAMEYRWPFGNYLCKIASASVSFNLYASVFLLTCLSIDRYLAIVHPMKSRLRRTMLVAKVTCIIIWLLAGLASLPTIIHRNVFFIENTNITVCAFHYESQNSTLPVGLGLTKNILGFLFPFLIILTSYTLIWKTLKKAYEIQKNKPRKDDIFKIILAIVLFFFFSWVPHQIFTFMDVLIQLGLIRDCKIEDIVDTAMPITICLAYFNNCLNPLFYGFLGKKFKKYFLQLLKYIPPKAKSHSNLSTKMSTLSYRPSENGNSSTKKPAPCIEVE
Protocol: After 45 minutes the incubation was stopped by rapid filtration through glass fibre filters. The radioactivity associated with the filter was determined in a […] at a counting efficiency of 80%.

angiotensin II = molecular target: T2, angiotensin II (Rattus norvegicus, UniProt P25095); experiment: displacement of angiotensin II dose-effect curves (increase in arterial blood pressure) in rats, pA2; format: in vivo; conditions: average, angiotensin II antagonism in rats, 10, 20 and 30 mg/kg i.v.
T2 construct: The measured parameter is the increase in the arterial blood pressure; from tissue; host or cells: whole anaesthetised rat with destroyed spine, in vivo (vascular receptors)
T2 sequence (P25095 1-359): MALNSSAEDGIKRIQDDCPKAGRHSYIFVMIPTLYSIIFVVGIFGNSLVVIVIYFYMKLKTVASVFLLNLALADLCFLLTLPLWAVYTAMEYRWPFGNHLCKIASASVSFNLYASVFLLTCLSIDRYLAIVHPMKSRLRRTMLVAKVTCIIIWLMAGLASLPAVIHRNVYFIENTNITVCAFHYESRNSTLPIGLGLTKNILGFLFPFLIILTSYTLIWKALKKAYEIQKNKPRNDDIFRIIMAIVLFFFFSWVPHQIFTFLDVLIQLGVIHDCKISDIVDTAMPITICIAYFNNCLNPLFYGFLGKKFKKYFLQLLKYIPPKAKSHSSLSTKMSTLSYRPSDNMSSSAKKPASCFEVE
Protocol: a) rats (male, 180-220 g) are anaesthetised using sodium hexobarbital (150 mg/kg i.p.). After the anaesthetic has taken effect, a tracheal cannula is inserted, the spine is destroyed in the animals and then they are immediately respirated artifically using a respiratory pump. The arterial blood pressure is recorded via a cannula in the carotid artery by means of a Bell & Howell pressure sensor. Substances are administered via a cannula in the jugular vein. Test substances are administered in three doses (10, 20 and 30 mg/kg i.v.), wherein one dose of substance is tested per animal. […] The measured parameter is the increase in the arterial blood pressure. These dose-effect graphs are compared with standard graphs for angiotensin II without test substances. A computer program determines the displacements to the right of the dose-effect graphs for angiotensin II as a result of test substances, and calculates corresponding pA2 values for the test substances.

SMILES	IC50 [1]	IC50 ([1]; 50% inhibition of the specific 125I-angiotensin II (50 pM) bonding, bovine adrenal cortex membranes, 45 minutes)	pA2 values (angiotensin II)
CCCCCCNC(=O)N(CCc1ccccc1)c1ccc2nc(CCCC)n(Cc3ccc(-c4ccccc4C(=O)O)cc3)c2c1 [AA]	100 nM		
CCCCc1nc2ccc(N3C(=O)[C@H]4CCCC[C@H]4C3=O)cc2n1Cc1ccc(-c2ccccc2-c2nn[nH]n2)cc1 [CC]	1000 nM		8,54
CCCCc1nc2ccc(N(C)C(=O)NC3CCCCC3)cc2n1Cc1ccc(-c2ccccc2C(=O)O)cc1 [E]	46 nM		7,34
CCCCCN(C(=O)NC1CCCCC1)c1ccc2nc(CCCC)n(Cc3ccc(-c4ccccc4C(=O)O)cc3)c2c1 [G]	46 nM		6,89
CCCCc1nc2ccc(N3Cc4ccccc4C3=O)cc2n1Cc1ccc(-c2ccccc2C(=O)O)cc1 [I]	51 nM		6,12
CCCCc1nc2ccc(N(Cc3ccccc3)C(=O)NC3CCCCC3)cc2n1Cc1ccc(-c2ccccc2C(=O)O)cc1 [J]	54 nM		7,38
CCCCC(=O)Nc1ccc2nc(CCCC)n(Cc3ccc(-c4ccccc4C(=O)O)cc3)c2c1 [K]	57 nM		6,38
CCCCc1nc2ccc(NC(=O)CC)cc2n1Cc1ccc(-c2ccccc2C(=O)O)cc1 [L]	58 nM		6,04
CCCCc1nc2ccc(NC(=O)CCC)cc2n1Cc1ccc(-c2ccccc2C(=O)O)cc1 [P]	67 nM		6,46
CCCCc1nc2ccc(NC(=O)NCCCCCO)cc2n1Cc1ccc(-c2ccccc2C(=O)O)cc1 [T]	76 nM		7,20
CCCCc1nc2ccc(N3C(=O)[C@H]4CCCC[C@H]4C3=O)cc2n1Cc1ccc(-c2ccccc2C(=O)O)cc1 [Y]	150 nM		6,97
CCCCc1nc2ccc(N(Cc3ccccc3)C(=O)N(C)C)cc2n1Cc1ccc(-c2ccccc2C(=O)O)cc1 [Z]	133 nM		7,15

Further lines, with some results ahead:

IC50 [1]	IC50 ([1]; 50% inhibition of the specific 125I-angiotensin II (50 pM) bonding, bovine adrenal cortex membranes, 45 minutes)	SMILES	pA2 values (angiotensin II)
29 nM		CCCCCCNC(=O)N(Cc1ccccc1)c1ccc2nc(CCCC)n(Cc3ccc(-c4ccccc4C(=O)O)cc3)c2c1 [A]	7,23
46 nM		CCCCc1nc2ccc(NC(=O)C3CCCC3)cc2n1Cc1ccc(-c2ccccc2C(=O)O)cc1 [BB]	
29 nM		CCCCc1nc2ccc(N(CCCC)C(=O)NC3CCCCC3)cc2n1Cc1ccc(-c2ccccc2C(=O)O)cc1 [B]	6,63
31 nM		CCCCc1nc2ccc(N(CC)C(=O)NC3CCCCC3)cc2n1Cc1ccc(-c2ccccc2C(=O)O)cc1 [C]	6,36
44 nM		CCCCc1nc2ccc(N(CCC)C(=O)NC3CCCCC3)cc2n1Cc1ccc(-c2ccccc2C(=O)O)cc1 [D]	6,59
51 nM		CCCCc1nc2ccc(N(Cc3ccccc3)C(=O)NC)cc2n1Cc1ccc(-c2ccccc2C(=O)O)cc1 [H]	6,48
61 nM		CCCCc1nc2ccc(NC(=O)C(C)C)cc2n1Cc1ccc(-c2ccccc2C(=O)O)cc1 [M]	6,87
65 nM		CCCCc1nc2ccc(NC(=O)NC3CCCCO3)cc2n1Cc1ccc(-c2ccccc2C(=O)O)cc1 (stereo not drawn) [N]	7,02
65 nM		CCCCNC(=O)Nc1ccc2nc(CCCC)n(Cc3ccc(-c4ccccc4C(=O)O)cc3)c2c1 [O]	6,46
68 nM		CCCCc1nc2ccc(N(Cc3ccccc3)C(=O)OCC)cc2n1Cc1ccc(-c2ccccc2C(=O)O)cc1 [Q]	6,83
72 nM		CCCCc1nc2ccc(NC(=O)N(C)C)cc2n1Cc1ccc(-c2ccccc2C(=O)O)cc1 [R]	7,16
72 nM		CCCCCCN(C(=O)NC1CCCCC1)c1ccc2nc(CCCC)n(Cc3ccc(-c4ccccc4C(=O)O)cc3)c2c1 [S]	6,69
79 nM		CCCCCN(C(=O)NC)c1ccc2nc(CCCC)n(Cc3ccc(-c4ccccc4C(=O)O)cc3)c2c1 [U]	7,20
	84 nM	CCCCc1nc2ccc(NC(=O)C3CCCCC3)cc2n1Cc1ccc(-c2ccccc2C(=O)O)cc1 [V]	7,26
86 nM		CCCCNC(=O)N(C)c1ccc2nc(CCCC)n(Cc3ccc(-c4ccccc4C(=O)O)cc3)c2c1 [W]	6,28
99 nM		CCCCc1nc2c(C)ccc(O)c2n1Cc1ccc(-c2ccccc2-c2nn[nH]n2)cc1 [X]	6,57
